Where two headings read alike, the source gives them in different places. Blank lines part the entries; values can stand above or below the molecule they belong to.
Columns and labels:
[1] = biological target: Human Serum Albumin (HSA) site II (Homo sapiens, UniProt P02768); details: literature knowledge; cited from earlier work
[2] = biological target: T1, Human Serum Albumin (HSA) (Homo sapiens, UniProt P02768); assay: c-WaterLOGSY competition binding experiment, displacement of reference compound 6-CH3 Trp from HSA; design: purchased Sigma A-3782
Procedure: (§1) NMR Experiments. […] For each sample a reference spectrum and a ID WaterLOGSY spectrum were recorded. […] The 1st water selective 180° pulse was 25 milliseconds (ms) long. A weak rectangular PFG is applied during the entire length of the mixing time (1.5 seconds (s)). A short gradient recovery time of 2 ms was introduced at the end of the mixing time before the detection pulse. […] The gradient recovery time was 0.2 s. […] Prior to Fourier transformation the data were multiplied with an exponential function with a line broadening of 1 Hz.

[3] = biological target: T1, Human Serum Albumin (HSA); assay: biochemical; details: for Interaction with HSA by ITC binding heat effects: 30 μM protein, 1.5 mM ligand
Procedure: FIG. 3. Isothermal titration calorimetry (ITC) data measured on the binding of tryptophan analogues to HSA. […] Dilution heats were collected in blank titrations and were subtracted from the data. […] The solid line represents a calculated curve using the best-fit parameters obtained by a nonlinear least-squares fit to the measured data.
ITC Experiments. […] Heats of dilution were measured in blank titrations by injecting the […] into the buffer used in the particular experiment and were subtracted from the binding heats. Thermodynamic parameters were determined by non-linear least squares methods using routines included in the Origin software package (MicroCal).

[4] = biological target: T1, Human Serum Albumin (HSA); assay: One-dimensional WaterLOGSY NMR spectra of methyl-tryptophan derivatives with HSA; format: binding; design: purchased Sigma A-3782; details: 50 μM compound, 5 μM HSA, PBS pH 7.4, 293 K
Procedure: FIG. 2. […] Positive and negative signals identify HSA binding and noninteracting molecules, respectively.
Diazepam was purchased from Carlo Erba. The NMR samples were in phosphate buffered saline (PBS) buffer (Sigma) pH 7.4. D2O was added to the solutions (8% final concentration) for the lock signal.
as §1
Therefore in an effort to identify a potential reference molecule, three methyl-tryptophan derivatives, namely 5-CH3, 6-CH3, and 7-CH3 Trp, were selected.

T1 sequence (P02768 25-609): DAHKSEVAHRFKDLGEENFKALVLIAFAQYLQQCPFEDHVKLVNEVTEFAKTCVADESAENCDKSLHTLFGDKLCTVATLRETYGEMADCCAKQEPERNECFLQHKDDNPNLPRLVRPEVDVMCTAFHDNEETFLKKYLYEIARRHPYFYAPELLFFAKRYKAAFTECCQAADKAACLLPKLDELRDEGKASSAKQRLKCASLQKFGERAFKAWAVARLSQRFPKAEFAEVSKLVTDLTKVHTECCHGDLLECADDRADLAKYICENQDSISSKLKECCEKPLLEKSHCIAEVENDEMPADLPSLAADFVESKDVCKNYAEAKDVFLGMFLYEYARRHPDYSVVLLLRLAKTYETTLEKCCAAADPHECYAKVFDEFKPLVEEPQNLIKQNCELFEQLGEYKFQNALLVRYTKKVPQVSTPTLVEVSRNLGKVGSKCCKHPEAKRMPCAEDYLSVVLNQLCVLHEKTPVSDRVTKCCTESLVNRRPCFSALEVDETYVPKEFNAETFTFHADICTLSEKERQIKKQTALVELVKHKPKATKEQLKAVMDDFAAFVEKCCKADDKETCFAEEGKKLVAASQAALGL
Sequence of Human Serum Albumin (HSA) site II (P02768 25-609): as above

SMILES: N[C@@H](Cc1c[nH]c2ccccc12)C(=O)O [tryptophan]
- Binding site on HSA [1]: binds also on site II of HSA

SMILES: OC[C@H]1O[C@@](CO)(O[C@H]2O[C@H](CO)[C@@H](O)[C@H](O)[C@H]2O)[C@@H](O)[C@@H]1O [Sucrose]
- Signal intensity change of the 6-CH3 Trp reference WaterLOGSY signal in presence of the competitor [2]: No signal intensity change

The remaining lines, values ahead:

- Kd [3]: 37 µM
- association binding constant (KB) [3]: 2.7±0.2 10^4 Mol^−1
- Interaction with HSA by ITC binding heat effects ([3]; PBS, 298 K): negative binding heats were observed
- ΔH^obs ([3]; ITC, 298 K, PBS): 1.9 ± 0.1 kcal/mol
- ΔS ([3]; ITC, 298 K, PBS): 13.79 cal/(mol K)
- Interaction with HSA by sign of WaterLOGSY signal (positive = binding, negative = noninteracting) [4]: ligand for HSA
SMILES: Cc1ccc2c(CC(N)C(=O)O)c[nH]c2c1 (racemic) [6-CH3 Trp, 6-CH3-D,L-Trp]

- Interaction with HSA by ITC binding heat effects ([3]; PBS, 298 K): No net binding heat effects
- Interaction with HSA by sign of WaterLOGSY signal (positive = binding, negative = noninteracting) [4]: do not interact with the protein
SMILES: Cc1ccc2[nH]cc(CC(N)C(=O)O)c2c1 (racemic) [5-CH3 Trp, 5-CH3-D,L-Trp]

- Signal intensity change of the 6-CH3 Trp reference WaterLOGSY signal in presence of the competitor ([2]; 10 μM competitor, 50 μM 6-CH3 D,L Trp, 5 μM HSA): No signal intensity change
- Interaction with HSA by ITC binding heat effects ([3]; PBS, 298 K): No net binding heat effects
- Interaction with HSA by sign of WaterLOGSY signal (positive = binding, negative = noninteracting) [4]: do not interact with the protein
SMILES: Cc1cccc2c(CC(N)C(=O)O)c[nH]c12 (racemic) [7-CH3 Trp, 7-CH3-D,L-Trp]

Reference: patent publication US20040072211A1, “Methods for identifying ligands using waterlogsy NMR” (PHARMACIA & UPJOHN COMPANY, priority 2002, published 2004)
